In patent US11607417B2, “Uses of celastrol in preventing and/or treating cholestatic liver disease and liver fibrosis” (KUNMING INSTITUTE OF BOTANY, THE CHINESE ACADEMY OF SCIENCES, priority 2017, dated 2023):
Several values for one entry are separate records, joined by “and”; a condition that tells them apart may be missing. Identical values can stand only once.

Experiments:
[1] = system: ANIT-induced cholestatic liver injury under SIRT1 inhibition; test: Effect of SIRT1 inhibition (EX527) on celastrol activity in ANIT model (Example 3); format: in vivo, C57BL/6 mice
Description: A total of 24 male C57BL/6 mice were divided into four groups: blank group (n=6); model group (n=6); treatment group (n=6); and EX527 group (n=6).
Celastrol was dissolved in a solvent to obtain a celastrol solution at a concentration of 2 mg/mL, wherein the solvent consisted of 1% DMSO, 2% Tween 80, and 97% water (v:v:v). For intragastrical administration, the dosage of celastrol was 10 mg/kg·d. ANIT was dissolved in corn oil to obtain a corn oil solution of ANIT at a concentration of 15 mg/mL, and the dosage of ANIT for intragastrical administration was 75 mg/kg. EX527 was dissolved in corn oil to obtain a corn oil solution of EX527 at a concentration of 2 mg/mL, and the dosage of EX527 for intraperitoneal injection was 10 mg/kg·d.
The EX527 group was simultaneously administrated with the celastrol solution and the EX527 corn oil solution for 5 consecutive days. The treatment group was administrated with the celastrol solution and an equal dosage of corn oil for 5 consecutive days. At the same time, the blank group and the model group were administrated with equal dosages of solvent (1% DMSO, 2% Tween 80 and 97% water (v:v:v)) and corn oil, and the solvent was administrated for 5 consecutive days.
On the 3rd day of administration, ANIT model was established. 4 Hours after administration, the mice in the model group, the treatment group and the EX527 group were respectively intraperitoneally injected with the ANIT corn oil solution at a dosage of 75 mg/kg for single administration to induce cholestatic liver injury, and the blank group was fed with an equal dosage of corn oil. After the model was established on the 3rd day of administration, the treatment group was continuously administrated with celastrol, the EX527 group was continuously administrated with celastrol and EX527, and the blank group and the model group were continuously administrated with the same dosage of solvent. 48 Hours after administration with ANIT, the mice were sacrificed by CO2 anesthesia, and mouse liver samples and plasma samples were taken. The eyeballs of the mice were taken for blood collection. The plasma samples were placed on ice for 1-2 hours, centrifuged at 4000 g for 5 minutes at 4° C., and the supernatants of the plasma samples were taken to determine plasma biochemical indicators, the levels of ALT, AST and ALP.
At the same time, plasma samples were prepared: 10 μL of plasma sample was taken, mixed well with 190 μL of 67% acetonitrile (containing 5 μM internal standard chlorpropamide), centrifuged at 18000 g for 20 minutes at 4° C., and the supernatant was taken for sample injection. The liquid chromatography conditions were as follows: the injection volume was 5 μL; the temperature of column was 45° C.; the flow rate of mobile phase was 0.3 mL/min; the gradient elution was that acetonitrile concentration changed from 2% to 98% during 16 minutes of operation, wherein the mobile phase (water/acetonitrile solution) contained 0.01% formic acid. The elution procedure was as follows: during 0-12th minute, the acetonitrile concentration changed from 2% to 98% at a constant rate; during 12-14th minute, the acetonitrile concentration was maintained at 98%; during 14-14.1th minute, the acetonitrile concentration changed from 98% to 2%; during 14.1-16th minute, the acetonitrile concentration was maintained at 2%. Mass spectrometry conditions were as follows: the temperature of dry gas was 350° C., the pressure of nebulizer was 35 psi, and the voltage of capillary was 3.5 kV.
(§1) Part of the collected mouse liver tissue was fixed overnight in formalin and tissue sections were stained with hematoxylin and eosin (H&E).

[2] = system: TAA-induced cholestatic liver injury; test: TAA-induced mouse cholestatic liver injury (Example 2); format: in vivo, C57BL/6 mice
Description: A total of 18 male C57BL/6 mice were divided into three groups: blank group (n=6); model group (n=6); treatment group (n=6).
Celastrol was dissolved in a solvent to obtain a solution of celastrol at a concentration of 2 mg/mL, wherein the solvent consisted of 1% DMSO, 2% Tween, and 97% water (v:v:v). For intragastrical administration, the dosage of celastrol was 10 mg/kg·d. TAA was dissolved in 0.9% NaCl solution to prepare a NaCl solution of TAA at a concentration of […], and the dosage of TAA for intraperitoneal administration was 300 mg/kg.
The treatment group was administered intragastrically with the celastrol solution at a dosage of 10 mg/kg·d for 4 consecutive days. At the same time, the blank group and the model group were intragastrically administered with the same dosage of a solvent, wherein the solvent consisted of 1% DMSO, 2% Tween 80 and 97% water (v:v:v), and the solvent was administrated for 4 consecutive days.
On the 4th day, TAA model was established. 1 Hour after administration with the solvent or celastrol solution, the mice of the treatment group and the model group were respectively intraperitoneally injected with the NaCl solution of TAA at a dosage of 300 mg/kg to induce cholestatic liver injury. 24 Hours after treatment with TAA, the mice were sacrificed by CO2 anesthesia, and plasma samples and liver samples were collected. The eyeballs of the mice were taken for blood collection. The plasma samples were placed on ice for 1-2 hours, centrifuged at 4000 g for 5 minutes at 4° C., and the supernatant plasma samples were taken to determine the plasma biochemical indicators, the levels of ALT, AST and ALP.
At the same time, plasma samples were prepared: 10 μL of plasma sample was taken, mixed with 190 μL of 67% acetonitrile (containing 5 μM internal standard chlorpropamide), centrifuged at 18000 g for 20 minutes at 4° C., and the supernatant was taken for sample injection.
Liver samples were prepared: 100 mg liver samples were mixed well with 1 mL of 50% acetonitrile (containing 5 μM internal standard chlorpropamide), shaken for 20 minutes at room temperature, and then centrifuged at 18000 g for 20 minutes at 4° C. Thereafter, 200 μL of the supernatant was taken and added with 200 μl of pure acetonitrile, vortexed for 1 minute, centrifuged at 18000 g for 20 minutes at 4° C., and the supernatant was taken for sample injection. The liquid chromatography conditions were as follows: the injection volume was 5 μL; the temperature of column was 45° C.; the flow rate of mobile phase was 0.3 mL/min; the gradient elution was that acetonitrile concentration changed from 2% to 98% during 16 minutes of operation, wherein the mobile phase (water/acetonitrile solution) contained 0.01% formic acid. The elution procedure was as follows: during 0-12th minute, the acetonitrile concentration changed from 2% to 98% at a constant rate; 12-14th minute, the acetonitrile concentration was maintained at 98%; 14-14.1th minute, the acetonitrile concentration changed from 98% to 2%; 14.1-16th minute, the acetonitrile concentration was maintained at 2%. Mass spectrometry conditions were as follows: the temperature of dry gas was 350° C., the pressure of nebulizer was 35 psi, and the voltage of capillary was 3.5 kV.
as §1

[3] = treatment group: celastrol 10 mg/kg·d, P<0.05, FIG. 3E
[4] = celastrol 10 mg/kg·d intragastric 4 days, TAA 300 mg/kg i.p. on day 4, 24 h after TAA, n=6
[5] = celastrol 10 mg/kg·d intragastric 4 days, TAA 300 mg/kg i.p., 24 h after TAA, n=6

CC1=C(O)C(=O)C=C2C1=CC=C1[C@@]2(C)CC[C@@]2(C)[C@@H]3C[C@](C)(C(=O)O)CC[C@]3(C)CC[C@]12C [celastrol, Celastrol]
Levels of bile acids in plasma vs model group ([1]; CA, DCA, TβMCA/TαMCA, TCA, THDCA/TUDCA, treatment group: celastrol 10 mg/kg·d, FIG. 3F): significantly lower
H&E staining of mouse liver tissue ([1]; treatment group: celastrol 10 mg/kg·d intragastric + corn oil, FIG. 3C): no obvious damage
ALP level in plasma vs model group [1, 3]: lower
ALT level in plasma vs model group [1, 3]: lower
AST level in plasma vs model group [1, 3]: lower
Liver weight of mouse when sacrificed [2, 4]: 1.55 g and 1.55 ± 0.21 g
Liver weight/body weight [2, 4]: 6.48% and 6.48 ± 0.93%
ALP in mouse plasma [2, 5]: 50.1 ± 7.8 U/l
ALT in mouse plasma [2, 5]: 333.3 ± 211.3 U/l
AST in mouse plasma [2, 5]: 920.3 ± 433.4 U/l
H&E staining: area of liver necrosis in liver tissue ([2]; celastrol 10 mg/kg·d intragastric, TAA model, FIG. 2C): significantly reduced
Levels of bile acids in plasma vs TAA model group ([2]; ω-MCA, DCA, TβMCA/TαMCA, TCA, THDCA/TUDCA, TCDCA, TDCA, celastrol 10 mg/kg·d, FIG. 2D): significantly lower
Levels of bile acids in liver vs TAA model group ([2]; ω-MCA, β-MCA, CA, DCA, TβMCA/TαMCA, TCA, GCA, TLCA, celastrol 10 mg/kg·d, FIG. 2E): significantly lower
